Measurements published in PubChem BioAssay (NCI).
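Cultured in 96-well plates, cells were exposed to test compound for 48 hours across five concentrations. TGI denotes the concentration required for complete inhibition of growth.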 Activity calls are given as the source filed them. Cut-off read from the data, not from the text of the source: active = GI50 below about 0.43 µM; inactive = the rest.

What was measured:
Assay in all cases: NCI anticancer screen, dose series, 48 h
786-0 renal = test system: 786-0 renal
A549 NSCLC = test system: A549 NSCLC
ACHN renal = test system: ACHN renal
CCRF-CEM leukemia = test system: CCRF-CEM leukemia
COLO 205 colon = test system: COLO 205 colon
DLD-1 colon = test system: DLD-1 colon
DMS 114 small cell lung = test system: DMS 114 small cell lung
DMS 273 small cell lung = test system: DMS 273 small cell lung
HCC-2998 colon = test system: HCC-2998 colon
HCT-116 colon = test system: HCT-116 colon
HL-60(TB) leukemia = test system: HL-60(TB) leukemia
HOP-62 NSCLC = test system: HOP-62 NSCLC
HOP-92 NSCLC = test system: HOP-92 NSCLC
IGROV1 ovarian = test system: IGROV1 ovarian
K-562 leukemia = test system: K-562 leukemia
KM12 colon = test system: KM12 colon
KM20L2 colon = test system: KM20L2 colon
LOX IMVI melanoma = test system: LOX IMVI melanoma
LXFL 529 NSCLC = test system: LXFL 529 NSCLC
M14 melanoma = test system: M14 melanoma
M19-MEL melanoma = test system: M19-MEL melanoma
MALME-3M melanoma = test system: MALME-3M melanoma
MOLT-4 leukemia = test system: MOLT-4 leukemia
NCI-H226 lung = test system: NCI-H226 lung
NCI-H23 lung = test system: NCI-H23 lung
NCI-H460 lung = test system: NCI-H460 lung
NCI-H522 lung = test system: NCI-H522 lung
OVCAR-3 ovarian = test system: OVCAR-3 ovarian
OVCAR-4 ovarian = test system: OVCAR-4 ovarian
OVCAR-5 ovarian = test system: OVCAR-5 ovarian
OVCAR-8 ovarian = test system: OVCAR-8 ovarian
RPMI-8226 leukemia = test system: RPMI-8226 leukemia
RXF 393 renal = test system: RXF 393 renal
RXF-631 renal = test system: RXF-631 renal
SF-268 CNS = test system: SF-268 CNS
SF-295 CNS = test system: SF-295 CNS
SF-539 CNS = test system: SF-539 CNS
SK-MEL-2 melanoma = test system: SK-MEL-2 melanoma
SK-MEL-28 melanoma = test system: SK-MEL-28 melanoma
SK-MEL-5 melanoma = test system: SK-MEL-5 melanoma
SK-OV-3 ovarian = test system: SK-OV-3 ovarian
SN12C renal = test system: SN12C renal
SNB-19 CNS = test system: SNB-19 CNS
SNB-75 CNS = test system: SNB-75 CNS
SNB-78 CNS = test system: SNB-78 CNS
SW-620 colon = test system: SW-620 colon
TK-10 renal = test system: TK-10 renal
U251 CNS = test system: U251 CNS
UACC-257 melanoma = test system: UACC-257 melanoma
UACC-62 melanoma = test system: UACC-62 melanoma
UO-31 renal = test system: UO-31 renal
XF 498 CNS = test system: XF 498 CNS
A498 renal = test system: A498 renal
CAKI-1 renal = test system: CAKI-1 renal
HCT-15 colon = test system: HCT-15 colon
HOP-18 NSCLC = test system: HOP-18 NSCLC
HT29 colon = test system: HT29 colon
SR leukemia = test system: SR leukemia

C=CCCCCC1CCC2CCC(CCCC)N12 (centres undefined) was tested, and the outcome (786-0 renal) was “inactive”, the outcome (A549 NSCLC) was “inactive” and the outcome (ACHN renal) was “inactive”. The outcome (CCRF-CEM leukemia) was “inactive”, the outcome (COLO 205 colon) was “inactive” and the outcome (DLD-1 colon) was “inactive”. The outcome (DMS 114 small cell lung) was “inactive”, the outcome (DMS 273 small cell lung) was “inactive” and the outcome (HCC-2998 colon) was “inactive”. The outcome (HCT-116 colon) was “inactive”, the outcome (HL-60(TB) leukemia) was “inactive” and the outcome (HOP-62 NSCLC) was “inactive”. For the same molecule, the outcome (HOP-92 NSCLC) was “inactive”, the outcome (IGROV1 ovarian) was “inactive” and the outcome (K-562 leukemia) was “inactive”. The outcome (KM12 colon) was “inactive”, the outcome (KM20L2 colon) was “inactive” and the outcome (LOX IMVI melanoma) was “inactive”. For the same molecule, the outcome (LXFL 529 NSCLC) was “inactive”, the outcome (M14 melanoma) was “inactive” and the outcome (M19-MEL melanoma) was “inactive”. For the same molecule, the outcome (MALME-3M melanoma) was “inactive”, the outcome (MOLT-4 leukemia) was “inactive” and the outcome (NCI-H226 lung) was “inactive”. The outcome (NCI-H23 lung) was “inactive”, the outcome (NCI-H460 lung) was “inactive” and the outcome (NCI-H522 lung) was “inactive”. The outcome (OVCAR-3 ovarian) was “inactive”, the outcome (OVCAR-4 ovarian) was “inactive” and the outcome (OVCAR-5 ovarian) was “inactive”. For the same molecule, the outcome (OVCAR-8 ovarian) was “inactive”, the outcome (RPMI-8226 leukemia) was “inactive” and the outcome (RXF 393 renal) was “inactive”. For the same molecule, the outcome (RXF-631 renal) was “inactive”, the outcome (SF-268 CNS) was “inactive” and the outcome (SF-295 CNS) was “inactive”. The outcome (SF-539 CNS) was “inactive”, the outcome (SK-MEL-2 melanoma) was “inactive” and the outcome (SK-MEL-28 melanoma) was “inactive”. For the same molecule, the outcome (SK-MEL-5 melanoma) was “inactive”, the outcome (SK-OV-3 ovarian) was “inactive” and the outcome (SN12C renal) was “inactive”. The outcome (SNB-19 CNS) was “inactive”, the outcome (SNB-75 CNS) was “inactive” and the outcome (SNB-78 CNS) was “inactive”. The outcome (SW-620 colon) was “inactive”, the outcome (TK-10 renal) was “inactive” and the outcome (U251 CNS) was “inactive”. The outcome (UACC-257 melanoma) was “inactive”, the outcome (UACC-62 melanoma) was “inactive” and the outcome (UO-31 renal) was “inactive”. The outcome (XF 498 CNS) was “inactive”.
Work on O=S(=O)(SCCCCSS(=O)(=O)c1ccc(Cl)cc1)c1ccc(Cl)cc1 yielded a TGI (786-0 renal) of 21.4 µM, a TGI (A498 renal) of 32.9 µM and a TGI (A549 NSCLC) of 37.2 µM. For the same molecule, the TGI (ACHN renal) was 31 µM, the TGI (CAKI-1 renal) was 27.8 µM and the TGI (CCRF-CEM leukemia) was 4.5 µM. It also gave a TGI (COLO 205 colon) of 28.2 µM, a TGI (DLD-1 colon) of 27.5 µM and a TGI (DMS 114 small cell lung) of 20.7 µM. For the same molecule, the TGI (DMS 273 small cell lung) was 23.3 µM, the TGI (HCC-2998 colon) was 34.1 µM and the TGI (HCT-116 colon) was 24.3 µM. It also gave a TGI (HCT-15 colon) of 27.4 µM, a TGI (HL-60(TB) leukemia) of 8.85 µM and a TGI (HOP-18 NSCLC) of 32.9 µM. For the same molecule, the TGI (HOP-62 NSCLC) was 36.6 µM, the TGI (HOP-92 NSCLC) was 21 µM and the TGI (HT29 colon) was 32.1 µM. It also gave a TGI (IGROV1 ovarian) of 19.4 µM, a TGI (K-562 leukemia) of 48.8 µM and a TGI (KM12 colon) of 22.8 µM. For the same molecule, the TGI (KM20L2 colon) was 33.8 µM, the TGI (LOX IMVI melanoma) was 11.3 µM and the TGI (LXFL 529 NSCLC) was 24.7 µM. It also gave a TGI (M14 melanoma) of 27.7 µM, a TGI (M19-MEL melanoma) of 30.8 µM and a TGI (MALME-3M melanoma) of 32.4 µM. The TGI (MOLT-4 leukemia) was 10.1 µM, the TGI (NCI-H23 lung) was 22.9 µM and the TGI (NCI-H460 lung) was 29.5 µM. For the same molecule, the TGI (NCI-H522 lung) was 17 µM, the TGI (OVCAR-3 ovarian) was 28 µM and the TGI (OVCAR-4 ovarian) was 33.5 µM. It also gave a TGI (OVCAR-5 ovarian) of 30.4 µM, a TGI (OVCAR-8 ovarian) of 25.5 µM and a TGI (RPMI-8226 leukemia) of 28.5 µM. It also gave a TGI (RXF 393 renal) of 34.2 µM, a TGI (RXF-631 renal) of 21.5 µM and a TGI (SF-268 CNS) of 29.1 µM. It also gave a TGI (SF-295 CNS) of 15.2 µM, a TGI (SF-539 CNS) of 25 µM and a TGI (SK-MEL-2 melanoma) of 33.2 µM. It also gave a TGI (SK-MEL-28 melanoma) of 34.3 µM, a TGI (SK-MEL-5 melanoma) of 30.5 µM and a TGI (SK-OV-3 ovarian) of 30.1 µM. It also gave a TGI (SN12C renal) of 22.5 µM, a TGI (SNB-19 CNS) of 28 µM and a TGI (SNB-75 CNS) of 33.3 µM. It also gave a TGI (SNB-78 CNS) of 56.4 µM, a TGI (SW-620 colon) of 23 µM and a TGI (TK-10 renal) of 47.7 µM. It also gave a TGI (U251 CNS) of 21 µM, a TGI (UACC-257 melanoma) of 37.2 µM and a TGI (UACC-62 melanoma) of 28.9 µM. It also gave a TGI (UO-31 renal) of 21.1 µM.
With O=C(NC1C(O)C(O)C(CO)OC1n1cc(F)c(=O)[nH]c1=O)OCc1ccccc1 (centres undefined) the TGI (A498 renal) was over 100 µM, the TGI (A549 NSCLC) was over 100 µM and the TGI (ACHN renal) was over 100 µM. The TGI (CAKI-1 renal) was over 100 µM, the TGI (CCRF-CEM leukemia) was over 100 µM and the TGI (COLO 205 colon) was over 100 µM. For the same molecule, the TGI (DLD-1 colon) was over 100 µM, the TGI (DMS 114 small cell lung) was over 100 µM and the TGI (DMS 273 small cell lung) was over 100 µM. The TGI (HCC-2998 colon) was over 100 µM, the TGI (HCT-116 colon) was over 100 µM and the TGI (HCT-15 colon) was over 100 µM. For the same molecule, the TGI (HL-60(TB) leukemia) was over 100 µM, the TGI (HOP-18 NSCLC) was over 100 µM and the TGI (HOP-62 NSCLC) was over 100 µM. For the same molecule, the TGI (HOP-92 NSCLC) was over 100 µM, the TGI (HT29 colon) was over 100 µM and the TGI (KM12 colon) was over 100 µM. For the same molecule, the TGI (KM20L2 colon) was over 100 µM, the TGI (LOX IMVI melanoma) was over 100 µM and the TGI (LXFL 529 NSCLC) was over 100 µM. For the same molecule, the TGI (M14 melanoma) was over 100 µM, the TGI (MALME-3M melanoma) was over 100 µM and the TGI (NCI-H226 lung) was over 100 µM. The TGI (NCI-H23 lung) was over 100 µM, the TGI (NCI-H460 lung) was over 100 µM and the TGI (NCI-H522 lung) was over 100 µM. The TGI (OVCAR-4 ovarian) was over 100 µM, the TGI (OVCAR-5 ovarian) was over 100 µM and the TGI (RPMI-8226 leukemia) was over 100 µM. It also gave a TGI (RXF 393 renal) of over 100 µM, a TGI (RXF-631 renal) of over 100 µM and a TGI (SF-268 CNS) of over 100 µM. The TGI (SF-295 CNS) was over 100 µM, the TGI (SK-MEL-2 melanoma) was over 100 µM and the TGI (SK-MEL-28 melanoma) was over 100 µM. For the same molecule, the TGI (SK-MEL-5 melanoma) was over 100 µM, the TGI (SK-OV-3 ovarian) was over 100 µM and the TGI (SN12C renal) was over 100 µM. It also gave a TGI (SNB-19 CNS) of over 100 µM, a TGI (SNB-75 CNS) of over 100 µM and a TGI (SNB-78 CNS) of over 100 µM. The TGI (SR leukemia) was over 100 µM, the TGI (SW-620 colon) was over 100 µM and the TGI (TK-10 renal) was over 100 µM. It also gave a TGI (U251 CNS) of over 100 µM and a TGI (UACC-257 melanoma) of over 100 µM.
